# Laboratory results published in PMC3265476, “Functional Characterization of MODY2 Mutations Highlights the Importance of the Fine-Tuning of Glucokinase and Its Role in Glucose Sensing” (PLoS ONE, 2012).
# Changes are numbered by the printed parent chain. Read-outs that look alike come from different tables or passages of the source.
# T1: GST-GK(p.Ala449Thr) (Homo sapiens, UniProt P35557, A449T)
# T1 construct: made in house; host or cells: E. coli
# T1 sequence (P35557 1-465 A449T): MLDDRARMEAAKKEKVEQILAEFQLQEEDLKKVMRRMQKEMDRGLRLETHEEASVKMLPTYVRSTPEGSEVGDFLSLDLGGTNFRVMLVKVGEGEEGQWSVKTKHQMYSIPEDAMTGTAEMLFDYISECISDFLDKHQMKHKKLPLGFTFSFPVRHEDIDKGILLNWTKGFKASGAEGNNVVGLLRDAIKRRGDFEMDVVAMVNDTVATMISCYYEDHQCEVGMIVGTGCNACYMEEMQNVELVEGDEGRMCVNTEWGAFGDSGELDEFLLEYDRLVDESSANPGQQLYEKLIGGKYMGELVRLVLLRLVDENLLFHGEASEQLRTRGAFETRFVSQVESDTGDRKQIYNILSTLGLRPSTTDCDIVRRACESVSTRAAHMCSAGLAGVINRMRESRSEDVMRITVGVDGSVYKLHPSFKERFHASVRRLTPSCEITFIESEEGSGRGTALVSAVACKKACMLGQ
# T2: Wild-type GST-GK (Homo sapiens, UniProt P35557)
# T2 construct: made in house; host or cells: E. coli
# T2 sequence (P35557 1-465): T1 sequence (P35557 1-465 A449T) with T449A
# T3: GST-GK(p.Gly223Ser) (Homo sapiens, UniProt P35557, G223S)
# T3 construct: made in house; host or cells: E. coli
# T3 sequence (P35557 1-465 G223S): T1 sequence (P35557 1-465 A449T) with G223S, T449A
# B1: GST-GK (p.Ile130Thr): recombinant GST-glucokinase fusion protein with MODY2 mutation p.Ile130Thr (protein, UniProt P35557 1-465, looked up, variant I130T)
# Hexokinase-4: T1 sequence (P35557 1-465 A449T) with I130T, T449A
# modifications: N-terminal GST fusion
# B2: GST-GK (p.Gly223Ser): recombinant GST-glucokinase fusion protein with MODY2 mutation p.Gly223Ser (protein, UniProt P35557 1-465, looked up, variant G223S)
# Hexokinase-4: T1 sequence (P35557 1-465 A449T) with G223S, T449A
# modifications: N-terminal GST fusion
# B3: GST-GK (p.Asp205His): recombinant GST-glucokinase fusion protein with MODY2 mutation p.Asp205His (protein, UniProt P35557 1-465, looked up, variant D205H)
# Hexokinase-4: T1 sequence (P35557 1-465 A449T) with D205H, T449A
# modifications: N-terminal GST fusion
# B4: GKRP: purified human glucokinase regulatory protein, competitive inhibitor with respect to glucose (protein, UniProt Q14397 1-625, looked up)
# Glucokinase regulatory protein: MPGTKRFQHVIETPEPGKWELSGYEAAVPITEKSNPLTQDLDKADAENIVRLLGQCDAEIFQEEGQALSTYQRLYSESILTTMVQVAGKVQEVLKEPDGGLVVLSGGGTSGRMAFLMSVSFNQLMKGLGQKPLYTYLIAGGDRSVVASREGTEDSALHGIEELKKVAAGKKRVIVIGISVGLSAPFVAGQMDCCMNNTAVFLPVLVGFNPVSMARNDPIEDWSSTFRQVAERMQKMQEKQKAFVLNPAIGPEGLSGSSRMKGGSATKILLETLLLAAHKTVDQGIAASQRCLLEILRTFERAHQVTYSQSPKIATLMKSVSTSLEKKGHVYLVGWQTLGIIAIMDGVECIHTFGADFRDVRGFLIGDHSDMFNQKAELTNQGPQFTFSQEDFLTSILPSLTEIDTVVFIFTLDDNLTEVQTIVEQVKEKTNHIQALAHSTVGQTLPIPLKKLFPSIISITWPLLFFEYEGNFIQKFQRELSTKWVLNTVSTGAHVLLGKILQNHMLDLRISNSKLFWRALAMLQRFSGQSKARCIESLLRAIHFPQPLSDDIRAAPISCHVQVAHEKEQVIPIALLSLLFRCSITEAQAHLAAAPSVCEAVRSALAGPGQKRTADPLEILEPDVQ
# Key:
# Type in all cases: biochemical
# GST-GK(p.Ala449Thr) [1] = target: T1, GST-GK(p.Ala449Thr); test: Effect of GK synthetic activator on kinetic parameters
# Experimental: (§1) Glucokinase activity was measured spectrophotometrically on a spectrophotometer Uviconxl (Secoman), using an NADP^+-coupled assay with glucose-6-phosphate dehydrogenase, as described previously. The final reaction mixture contained 100 mM Tris pH 7.4, 150 mM KCl, 1 mM MgCl2, 1.4 mM ß-mercaptoethanol, 0.1% BSA, 5 mM ATP-MgCl2, 1 mM NADP^+, and 1 U/ml glucose-6-phosphate dehydrogenase. Determination of kinetic parameters and thermal stability tests were performed as in [20]. […] Inhibition by NAG and MH was determined under standard assay conditions with 50 nM glucokinase. The inhibition by palmitoylCoA was determined in reaction mixtures containing 25 mM Hepes pH 7.1; 25 mM KCl; 1 mM NADP, 1 mM ATP-MgCl2; 2.5 mM MgCl2; 5 mM ß-mercaptoethanol, 1 U/ml glucose-6-phosphate dehydrogenase and 61 nM glucokinase. Due to the low Kcat value of mutant GST-GK(pAla449Thr), the amount of protein used in inhibition assays was 180 nM to get sufficient activity to allow for accurate determination of the inhibitor effect. In these conditions, GK activity (U/mg of GST-GK(pAla449Thr)) in the absence of inhibitors was 1.3±0.08, 1.1±0.06 and 0.9±0.05 at 2, 1.5 and 1 mM of glucose, respectively for NAG and MH assays and 0.5±0.05, 0.33±0.03 and 0.27±0.03 at 2, 1.5 and 1 mM glucose, respectively for palmitoyl-CoA assay.
# (§2) GK activator LY2121260 was kindly provided by Elli Lilly and Co, Indianapolis, IN, USA. A stock solution of 1 mM LY2121260 was prepared in 12.5 mM Hepes pH 7.4 with 80% DMSO. Results are shown as means ± SEM, and statistical significance was analysed by the two-tailed Student's t-test. P values of <0.05 were considered statistically significant. The structural analysis of mutations was carried out using the crystal structure of human GK [18] and visualized using the Pymol Molecular Graphics System (Schrödinger).
# Wild-type GST-GK [2] = target: T2, Wild-type GST-GK; test: as above
# Experimental: as §1, §2
# GST-GK(p.Gly223Ser) = target: T3, GST-GK(p.Gly223Ser); test: Inhibition of glucokinase activity by NAG and MH, Dixon plots; settings: glucose 12.5, 25 and 50 mM
# Experimental: as §1
# GST-GK(p.Ala449Thr) [3] = target: T1, GST-GK(p.Ala449Thr); test: as above; settings: for IC50: glucose 1, 1.5 and 2 mM, 180 nM protein
# Experimental: as §1
# Wild-type GST-GK [4] = target: T2, Wild-type GST-GK; test: as above; settings: glucose 2, 5 and 8 mM, 50 nM glucokinase
# Experimental: as §1
# [5] = system: human beta-cell glucokinase; test: Kinetic analysis of recombinant GST-GK fusion proteins (NADP+-coupled assay with glucose-6-phosphate dehydrogenase); settings: for S0.5 for glucose: means ± SEM; for overall activity, % of the wild-type protein: reflected in the relative activity index; for nH (Hill coefficient): unit less
# Experimental: The expression and purification of fusion proteins from E. coli was performed as described previously [22]. Fusion proteins were stored at a concentration of about 1 mg/ml at −80°C in 30% glycerol, 50 mM glucose, 10 mM glutathione, 5 mM DTT, 200 mM KCl and 50 mM Tris/HCl pH = 8.0. Protein concentrations were determined using the Bio-Rad Protein Assay (Bio-Rad Laboratories, GmbH), with bovine serum albumin as standard.
# Glucokinase activity was measured spectrophotometrically on a spectrophotometer Uviconxl (Secoman), using an NADP^+-coupled assay with glucose-6-phosphate dehydrogenase, as described previously [22]. The final reaction mixture contained 100 mM Tris pH 7.4, 150 mM KCl, 1 mM MgCl2, 1.4 mM ß-mercaptoethanol, 0.1% BSA, 5 mM ATP-MgCl2, 1 mM NADP^+, and 1 U/ml glucose-6-phosphate dehydrogenase. Determination of kinetic parameters and thermal stability tests were performed as in [20].
# One unit of GK is defined as the amount of enzyme that phosphorylates 1 µmol of glucose per min at 30°C.
# GST-GK(p.Ala449Thr) [6] = target: T1, GST-GK(p.Ala449Thr); test: Inhibition of glucokinase activity by human GKRP; settings: 5 mM glucose; GKRP 0 to 200 nM; 10 µM S6P or 0.2 mM F1P
# Experimental: Purified human GKRP was kindly provided by KJ Brocklehurst (Cardiovascular and Gastrointestinal Department, AstraZeneca, Macclesfield, Cheshire SK10 4TG, UK). The effect of GKRP on glucokinase activity was determined as described. The final reaction mixture contained 25 mM Hepes pH 7.1; 25 mM KCl; 1 mM NADP, 1 mM ATP-MgCl2; 2.5 mM MgCl2; 5 mM ß-mercaptoethanol, 1 U/ml glucose-6-phosphate dehydrogenase, 61 nM of GST-GK or 180 nM GST-GK(pAla449Thr), 5 mM glucose, GKRP (0 to 200 nM) and, when indicated, 10 µM sorbitol-6-phosphate (S6P) or 0.2 mM fructose-1-phosphate (F1P). In these conditions, GST-GK(pAla449Thr) activity in the absence of GKRP was 0.8±0.09 U/mg of protein.
# Figure 2 Effect of mutation p.Ala449Thr on the GK interaction with GKRP. A) Inhibition of glucokinase activity by human GKRP. Enzyme activity was measured at 5 mM glucose as described in Material and Methods, in the presence of 10 µM S6P (left panel) or 0.2 mM F1P (right panel). Results are means ± SEM for three independent enzyme purifications assayed in triplicate. B) Two-hybrid interaction of GBD-GKRP with GAD-GK or GAD-GK(p.Ala449Thr) mutant. Yeast strain Y187 was used, and fusion proteins were expressed from pGBKT7 and pACTII derivatives. Values are means ± SEM from ß-galactosidase activity of six independent transformants.
molecule,measurement,setting,value
CS(=O)(=O)c1ccc([C@@]2(C(=O)Nc3nccs3)C[C@H]2C2CCCCC2)cc1 [LY2121260],S0.5 for glucose,"GST-GK(p.Ala449Thr) [1]; 10 µM GK activator, 0.8% DMSO",3.1 ± 0.3 mM
same,effect on S0.5,GST-GK(p.Ala449Thr) [1]; 10 µM activator,did not affect
same,Kcat (%),"Wild-type GST-GK [2]; 10 µM GK activator, 0.8% DMSO, wild type with buffer = 100",130.8±3.9 %
same,increase of Kcat,Wild-type GST-GK [2]; 10 µM activator,about 30%
same,increase of affinity for glucose,Wild-type GST-GK [2]; 10 µM activator,about 5 fold
"O=C(CO)[C@@H](O)[C@@H](O)[C@H](O)[C@H](O)CO [MH, mannoheptulose]",IC50,GST-GK(p.Gly223Ser); read-out: I50 for MH,3550 ± 630 µM
same,IC50,GST-GK(p.Ala449Thr) [3]; read-out: I50 for MH,670 ± 40 µM
same,IC50,Wild-type GST-GK [4]; read-out: I50 for MH,1150 ± 370 µM
"CC(=O)N[C@@H]1[C@@H](O)[C@H](O)[C@@H](CO)O[C@H]1O [NAG, N-acetylglucosamine]",IC50,GST-GK(p.Gly223Ser); read-out: I50 for NAG,380 ± 45 µM
same,IC50,GST-GK(p.Ala449Thr) [3]; read-out: I50 for NAG,200 ± 60 µM
same,effect of mutation on inhibition by NAG,GST-GK(p.Ala449Thr) [3]; vs wild type,did not affect the inhibition
same,IC50,Wild-type GST-GK [4]; read-out: I50 for NAG,210 ± 40 µM
B1,S0.5 for glucose,[5],8.59 ± 0.45 mM
same,"overall activity, % of the wild-type protein",[5],lower than 20%
same,nH (Hill coefficient),[5],1.01±0.02
B2,S0.5 for glucose,[5],44.0 ± 3.81 mM
same,"overall activity, % of the wild-type protein",[5],< 10%
same,nH (Hill coefficient),[5],1.13±0.01
B3,S0.5 for glucose,[5],No activity at all
same,nH (Hill coefficient),[5],No activity at all
B4,"enzymatic inhibition by GKRP, mutant vs wild type",GST-GK(p.Ala449Thr) [6],the same
